In one test the test system is IL-5. The test is described as follows: Auricular tissue IL-5 ELISA, atopic dermatitis mice. The format is in vivo, mouse. The following applies: day 7, topical application, control 15, vehicle 32. The method, then:
MC903 at 2 nM was applied to the right auricle of a 6-week-old male Balb/c (Japan SLC Inc.). Starting 8 h later, 5% norathyriol aqueous solution (1 mL of ethanol containing […] of norathyriol), betamethasone ointment, and delgocitinib ointment were applied to the auricle for 7 days. The measurement of auricular skin swelling was calculated by calipers. The day on which the first application of the compound was made was defined as day 0. Betamethasone and delgocitinib are currently in clinical use in atopic dermatitis and were used as control drugs in this example.
The mouse IL-5 ELISA kit (R&D) was used for this measurement.

Test [1] relates to Balb/c mice with ovalbumin-induced food allergy. The test is described as follows: Frequency of diarrhea, ovalbumin-induced food allergy mice. Format: in vivo, mouse. The following applies: OVA food allergy; oral daily 14 days from day 14, 10 mg/kg (dexamethasone 2 mg/kg); measured day 28; vs vehicle group. The method, then: A 0.2 mL dose of 10 μg ovalbumin (OVA) and 1 mg Alum mixture was administered to 6-week-old female Balb/c mice (Japan SLC Inc.) (day 0 of the example). Alum was used as an adjuvant. Seven days later, the Balb/c mice were immunized again with a 0.2 mL injection of the above mixture. Starting on day 14, mice were orally treated with 10 mg/kg of norathyriol, 10 mg/kg of mangiferin 8a, 10 mg/kg of tofacitinib (JAK inhibitor), 2 mg/kg of dexamethasone (steroid) and 10 mg/kg of olopatadine (antihistamine) daily for 14 consecutive days. Starting on day 14, 10 mg OVA was administered orally every other day […], and the frequency of diarrhea was measured after the final administration on day 28. Note that tofacitinib, dexamethasone, and olopatadine are currently in clinical use in food allergy and were used as control drugs in this example.
The group that was just immunized with OVA is called the subject group, the one that received norathyriol is called the norathyriol group, the one that received mangiferin 8a is called the mangiferin 8a group, the one that received tofacitinib is called the tofacitinib group, the one that received dexamethasone is called the dexamethasone group, and the one that received olopatadine is called the olopatadine group. Each group consisted of five animals.

Test [2] concerns IL-6. The test is described as follows: BAFF-induced IL-6 secretion in B cells (ELISA). The format is cell-based, mouse. The note with it: DBA/1J spleen B cells; 10 μM compound, 100 ng/mL BAFF, 7 days; control 26.06, BAFF only 454.47. The procedure: Spleens were harvested from 6-week-old male DBA/1J mice and B cells were isolated. After isolation, the cells were cultured in RPMI 1640 medium for 1 day. Then, 10 μM mangiferin 8a and 10 μM norathyriol were added to B cells, and 100 ng/mL of BAFF was added to each 3 h later, and the cells were cultured for 7 days. After 7 days of culture, the culture supernatant was collected and IL-6 secretion was measured by enzyme-linked immunosorbent assay (ELISA). This assay was performed using a mouse IL-6 ELISA kit (R&D).
A general note: ELISA stands for enzyme-linked immunosorbent assay.

Test [3] deals with Monocytes collected from mice. The test is described as follows: LPS-induced macrophage activation (CD11b/F4/80 flow cytometry). The following applies: 10 μM compound, 10 μg/mL LPS, 10 days; control 6.38, LPS only 26.8. The format is cell-based, mouse. The procedure: Monocytes collected from mice were cultured in RPMI 1640 medium for 1 day. Then, 10 μM mangiferin 8a and 10 μM norathyriol were added to monocytes, and after 1 day of culture, 10 μg/mL of LPS was added, followed by 10 days of culture. After 10 days of culture, cells were stained with anti-CD11b and anti-F4/80 antibodies, markers of macrophages, and expression of CD11b and F4/80 was measured using BD LSRFortessa. Note that CD11b positive and F4/80 positive indicate activated macrophages.
In general terms: A flow cytometer gives signals particle by particle.

The subject of test [4] is Monocytes collected from mice. The test is described as follows: LPS-induced M1 macrophage activation (CD80 flow cytometry). The format is cell-based, mouse. The following applies: 10 μM compound, 10 μg/mL LPS, 10 days; vs LPS-added group. The method, then: Monocytes collected from mice were cultured in RPMI 1640 medium for 1 day. Then, 10 μM mangiferin 8a and 10 μM norathyriol were added to Monocytes, and after 1 day of culture, 10 μg/mL of LPS was added, followed by 10 days of culture. After 10 days of culture, cells were stained with anti-CD11b and anti-F4/80 antibodies, markers of macrophages, and anti-CD80 antibody, marker of M1 macrophages, and CD80 (CD11b positive and F4/80 positive) expression was measured using BD LSRFortessa.

The target of the next test is T1, NIK (Mus musculus, UniProt Q9WUL6).
T1 construct: Proteins were extracted with cell lysate and used as samples; endogenous in cells; host or cells: primary splenic B cells from 6-week-old male Balb/c mice
T1 sequence (Q9WUL6 whole entry): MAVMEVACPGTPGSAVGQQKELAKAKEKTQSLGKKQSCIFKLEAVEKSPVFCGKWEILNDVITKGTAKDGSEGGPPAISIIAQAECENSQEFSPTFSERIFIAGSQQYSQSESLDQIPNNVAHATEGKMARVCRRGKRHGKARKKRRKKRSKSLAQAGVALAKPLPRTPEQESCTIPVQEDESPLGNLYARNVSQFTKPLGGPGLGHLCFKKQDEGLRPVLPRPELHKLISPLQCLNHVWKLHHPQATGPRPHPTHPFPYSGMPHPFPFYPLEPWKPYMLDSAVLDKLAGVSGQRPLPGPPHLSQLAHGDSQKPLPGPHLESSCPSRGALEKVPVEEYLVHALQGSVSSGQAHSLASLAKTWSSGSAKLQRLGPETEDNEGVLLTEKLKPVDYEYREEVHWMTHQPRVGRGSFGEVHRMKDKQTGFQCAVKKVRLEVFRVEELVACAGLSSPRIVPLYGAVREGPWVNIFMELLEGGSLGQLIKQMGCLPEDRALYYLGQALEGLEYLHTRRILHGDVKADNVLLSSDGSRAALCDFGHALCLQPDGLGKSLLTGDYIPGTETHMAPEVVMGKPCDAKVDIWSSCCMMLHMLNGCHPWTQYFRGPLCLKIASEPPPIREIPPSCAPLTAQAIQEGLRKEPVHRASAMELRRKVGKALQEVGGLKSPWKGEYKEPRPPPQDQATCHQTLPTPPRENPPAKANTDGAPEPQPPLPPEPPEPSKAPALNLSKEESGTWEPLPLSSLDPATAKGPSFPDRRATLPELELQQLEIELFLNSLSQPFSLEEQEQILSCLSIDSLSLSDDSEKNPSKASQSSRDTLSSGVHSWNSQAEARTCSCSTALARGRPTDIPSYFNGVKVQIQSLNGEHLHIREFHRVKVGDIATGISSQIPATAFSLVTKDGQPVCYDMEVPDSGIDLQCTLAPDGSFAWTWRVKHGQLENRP
The test is described as follows: LPS-induced NIK activation in B cells (Western blotting, phospho-NIK). Format: cell-based. The note with it: 10 μM compound 23 h, then 10 μg/mL LPS 1 h. The method, then:
Spleens were harvested from 6-week-old male Balb/c mice and B cells were isolated. After isolation, the cells were seeded in […] dish and cultured in RPMI 1640 medium for 1 day and used as control. In addition, B cells were seeded into 100 mm^2 dish, and after 1 day of culture, 10 μg/mL LPS was added and cultured for 1 h. Furthermore, B cells were seeded in […] dish, and after 1 day of culture, 10 μM mangiferin 8a and 10 μM norathyriol were added to B cells, and after 23 h, 10 μg/mL LPS was added to each, and the cells were incubated for 1 h. All were incubated at 37° C. and 5% CO2.
Proteins were extracted with cell lysate and used as samples. Each sample was transferred to a PVDF membrane after SDSPAGE and assayed with anti-phospho-NIK, anti-NIK, anti-NF-κB p52, anti-NF-κB p65 and anti-Lamin antibodies.
The antibody species is indicated in the vertical direction. Specifically, in the case of anti-phospho-NIK antibody (described as “Phospho-NIK”), anti-NIK antibody (described as “NIK”), anti-NF-κB p52 antibody (described as “NF-κB p52 nuclear”), anti-NF-κB p65 antibody (described as “NF-κB p65 nuclear”) and anti-Lamin antibody (described as “Lamin”).
Background: Immunoblotting shows a protein as a band on a membrane.

In test [5] the test system is IL-6. The test is described as follows: LPS-stimulated IL-6 secretion in B cells (ELISA). Format: cell-based, mouse. The note with it: 10 μM compound, 10 μg/mL LPS 2 days, control 9.46, LPS 246.13. The procedure: Mouse B cells were used to examine the inhibition of compounds on IL-6 secretion in LPS stimulation.
Mouse B cells were cultured in RPMI 1640 medium for 1 day. Then, 10 μM mangiferin 8a and 10 μM norathyriol were added to B cells, and after 1 day of culture, 10 μg/mL of LPS was added to each, followed by 2 days of culture.
Thus, the samples were divided into “control” with no treatment, “10 μg/mL LPS+10 μM mangiferin 8a” to which 10 μg/mL LPS and 10 μM mangiferin 8a were added, and “10 μg/mL LPS+10 μM norathyriol” to which 10 μg/mL LPS and 10 μM norathyriol were added and only 10 μg/mL LPS was added (“10 μg/L LPS”).
After these samples were incubated for 2 days, the culture supernatant was collected and IL-6 secretion was measured by enzyme-linked immunosorbent assay (ELISA). The mouse IL-6 ELISA kit (R&D) was used for this measurement.

As for `O=c1c2cc(O)c(O)cc2oc2cc(O)cc(O)c12` [norathyriol, 1,3,6,7-tetrahydroxyxanthone], the IL-5 secretion with IL-5 was 14 pg/mL. In addition, the frequency of diarrhea result in test [1] is recorded as “showed a marked decrease in the frequency of diarrhea”. Further, the IL-6 secretion in the test with IL-6 [2] stood at 61.39 pg/mL; with IL-6 [5] it was 56.13 pg/mL. Also, the “CD11b positive and F4/80 positive population (activated macrophages)” value in test [3] is listed as 11.6%. The “CD80 expression (CD11b positive and F4/80 positive)” value in test [4] is recorded as “markedly reduced”. The “phospho-NIK band (immunoblotting)” value on NIK is listed as “fainter”.
